From patent publication US12264156B2, “Compounds and pharmaceutical compositions thereof for the treatment of diseases” (GALAPAGOS NV, priority 2018, dated 2025)

Tests used:
[1] = tested on: LPS-induced TNFα in monocytes; experiment: Monocytes assay: LPS-triggered TNFα (ELISA); type: cell-based, human; conditions: Homo sapiens, Monocyte, LPS 200 ng/mL, supernatant after 4 h
Method: (§1) SIK inhibition inhibits TNFα and increases IL-10 release in LPS triggered monocyte-derived macrophages (MdM) and dendritic cells (MdDCs) (Clark et al. 2012; Sundberg et al. 2014; Ozanne et al. 2015). This assay evaluates illustrative compounds of the invention for their inhibition of LPS-induced TNFα and LPS triggered IL-10 secretion in monocytes.
(§2) PBMCs are isolated from human blood samples (buffycoats). The buffy coat is aseptically transferred into a 50 mL Falcon tube, and diluted 1/2 in PBS. Falcon tubes are filled with 20 mL Lymphoprep™, on top of which 25 mL of the buffy coat is carefully added, tubes are centrifuged for 35 min at 400 g in temperature controlled centrifuge, without brake, at 25° C. PBMCs are aspirated from the white interface layer between sample and Lymphoprep™. PBMCs are washed five times in PBS. Cells are resuspended in RPMI 1640 complete medium supplemented with 10% FBS, 1% P/S, and cell density is determined using a hematologic analyzer (Sysmex XS-500i).
(§3) PBMCs are centrifuged at 300×g for 10 min and resuspended at a density of 1.0*10^7 cells/80 μL Miltenyi buffer (PBS, pH 7.4, 1% FBS, 2 mM EDTA).
(§4) Starting from this point of the protocol all steps are performed on ice. 20 μL of CD14+ micro-beads are added per 1.0*10^7 cells, the tube is mixed and incubated for 15 min in the fridge at 4° C. Cell suspension volume is adjusted to total volume of 100 mL using Miltenyi buffer, mixed gently and subsequently centrifuged for 10 min at 300×g. Supernantant is discarded and cell pellet is resuspended in 12 mL of Miltenyi buffer.
(§5) Four LS columns are placed in the MACS Separator (magnet) from Miltenyi Biotec, and are prewet by rinsing with 3 mL of MACS buffer per column. Three mL of cell suspension is added onto the column (max 1*10^8 of labelled cells/column), and columns are subsequently washed 3 times with 3 mL of Miltenyi buffer.
(§6) The columns are removed from the magnets, and 5 mL of Miltenyi buffer are added to the column to flush out the CD14+ fraction by pushing the plunger into the column. The flushed fractions are collected in a fresh 50 mL Falcon and volume is adjusted to 30 mL using Miltenyi buffer, cells are centrifuged for 10 min at 300×g. The obtained cell pellet is resuspended in 10 mL RPMI w/o FBS, and cell density is determined using a hematologic analyser (Sysmex XS-500i). 100 000 cells are seeded in 80 μL per well of a 96-well plate in RPMI 1640 medium supplemented with 10% FBS, 1% P/S.
(§7) A compound dilution plate is made in 100% DMSO by 3-fold dilution of 10 mM stock solution. An intermediate dilution plate (10× final concentration) is made by diluting the compound dilution plate 50-fold in RPMI medium.
(§8) 10 μL of the 10× final concentration compound is added to the cells and incubated for 1 h at 37° C. before addition of trigger. No trigger conditions/trigger conditions are spiked with equal final DMSO concentrations of 0.2% DMSO. 10 μL of 10×LPS (final conc. 200 ng/mL) solution are added to all wells except for the ‘no trigger wells’ where 10 μL medium is added. Supernatant is collected after 4 h of LPS triggering.
A Lumitrac 600 Greiner 384-well plate is coated with 40 μL of capture antibody (BD Pharmingen, Cat #551220) reaching a final concentration of 1 μg/mL in 1×PBS and stored overnight at 4° C.
The plate is then washed once with PBST (PBS+0.05% Tween20) and once with PBS followed by the addition of 100 μL of blocking buffer (1% Bovine Serum Albumin (BSA)−5% Sucrose) and plates are sealed and incubated for at least 4 h at RT. After washing the plate once with PBST and once with PBS, […]. Plates are washed twice with PBST, and once with PBS, after which 35 μL of the detection antibody is added (final concentration 0.25 μg/mL diluted in dilution buffer) and plates are incubated for at least 2 h at RT. […]

SIK1 = biological target: T1, SIK1 (Homo sapiens, UniProt P57059); experiment: ADP-Glo kinase assay, SIK1; type: biochemical; conditions: ADP-Glo SIK kinase assay
T1 construct: purchased Carna Biosciences 02-131
T1 sequence (P57059 whole entry): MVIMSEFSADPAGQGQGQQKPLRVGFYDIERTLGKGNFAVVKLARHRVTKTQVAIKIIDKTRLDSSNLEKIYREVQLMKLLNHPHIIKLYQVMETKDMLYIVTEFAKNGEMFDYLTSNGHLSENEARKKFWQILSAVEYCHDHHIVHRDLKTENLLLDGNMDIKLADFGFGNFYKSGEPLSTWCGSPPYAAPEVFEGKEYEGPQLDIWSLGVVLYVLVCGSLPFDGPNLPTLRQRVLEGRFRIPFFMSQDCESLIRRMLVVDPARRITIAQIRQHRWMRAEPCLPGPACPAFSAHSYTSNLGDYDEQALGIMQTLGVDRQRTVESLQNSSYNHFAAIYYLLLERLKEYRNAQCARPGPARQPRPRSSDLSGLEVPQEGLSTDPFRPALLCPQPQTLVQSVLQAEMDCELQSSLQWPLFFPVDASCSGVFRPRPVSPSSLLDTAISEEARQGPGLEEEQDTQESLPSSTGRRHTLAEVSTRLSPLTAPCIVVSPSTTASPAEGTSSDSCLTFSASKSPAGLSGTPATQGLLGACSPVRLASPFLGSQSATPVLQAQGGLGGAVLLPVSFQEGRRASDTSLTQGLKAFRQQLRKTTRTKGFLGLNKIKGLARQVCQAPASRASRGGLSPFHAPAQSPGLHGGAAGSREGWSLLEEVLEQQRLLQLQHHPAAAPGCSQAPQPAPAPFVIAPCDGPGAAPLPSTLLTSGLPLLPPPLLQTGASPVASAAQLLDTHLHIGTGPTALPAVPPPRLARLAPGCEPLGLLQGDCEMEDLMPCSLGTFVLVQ
Outline: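 Wells with 1% DMSO or 10 μM staurosporine (final) define the control window. The kinase reaction with substrate and ATP runs 120 min at RT, followed by ADP-Glo detection: ATP depletion (40 min) and ADP-derived luminescence (30 min).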

SIK2 = biological target: T2, SIK2 (Homo sapiens, UniProt Q9H0K1); experiment: ADP-Glo kinase assay, SIK2; type: biochemical; conditions: ADP-Glo SIK kinase assay
T2 construct: purchased ThermoFisher Scientific PV4792
T2 sequence (Q9H0K1 whole entry): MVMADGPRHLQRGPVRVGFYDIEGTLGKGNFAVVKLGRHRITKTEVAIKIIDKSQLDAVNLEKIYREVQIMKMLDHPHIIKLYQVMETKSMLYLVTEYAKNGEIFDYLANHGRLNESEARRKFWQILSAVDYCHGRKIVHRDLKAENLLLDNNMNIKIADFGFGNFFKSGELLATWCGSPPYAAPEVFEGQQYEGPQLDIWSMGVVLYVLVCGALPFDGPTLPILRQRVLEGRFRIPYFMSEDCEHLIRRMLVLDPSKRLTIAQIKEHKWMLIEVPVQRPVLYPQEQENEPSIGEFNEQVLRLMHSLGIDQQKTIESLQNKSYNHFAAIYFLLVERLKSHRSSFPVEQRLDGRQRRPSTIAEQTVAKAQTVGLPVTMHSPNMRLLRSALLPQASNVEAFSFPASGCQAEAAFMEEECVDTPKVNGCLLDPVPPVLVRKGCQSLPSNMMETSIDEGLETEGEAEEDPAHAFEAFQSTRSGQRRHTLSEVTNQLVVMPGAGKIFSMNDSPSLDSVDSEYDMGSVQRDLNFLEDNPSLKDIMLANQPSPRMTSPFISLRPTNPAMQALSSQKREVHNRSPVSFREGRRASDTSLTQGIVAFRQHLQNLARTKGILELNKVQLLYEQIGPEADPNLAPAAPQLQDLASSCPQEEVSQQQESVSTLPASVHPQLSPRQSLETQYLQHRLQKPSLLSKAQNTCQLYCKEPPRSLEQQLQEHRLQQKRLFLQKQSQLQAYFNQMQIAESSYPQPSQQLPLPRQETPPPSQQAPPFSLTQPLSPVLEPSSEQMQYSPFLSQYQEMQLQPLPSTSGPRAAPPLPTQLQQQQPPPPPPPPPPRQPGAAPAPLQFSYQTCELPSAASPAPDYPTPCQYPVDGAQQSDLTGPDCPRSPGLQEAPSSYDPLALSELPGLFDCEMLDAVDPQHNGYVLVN
Outline: (§9)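 ADP-Glo luminescent assay of ADP formed by SIK2 or SIK3 with substrate after ATP addition, 120 min at RT. Remaining ATP depleted 40 min, then ADP converted to ATP and read by luciferase luminescence after 30 min. Controls: 1% DMSO and 10 μM staurosporine (final).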

[2] = tested on: LPS triggered IL-10 secretion in monocytes; experiment: Monocytes assay: LPS-triggered IL-10 (ELISA); type: cell-based, human; conditions: LPS 200 ng/mL, supernatant after 4 h, maximal fold change vs LPS only
Method: as §1, §2, §3, §4, §5, §6, §7, §8
A Lumitrac 600 Greiner 384-well plate is coated with 40 μL of capture antibody (final concentration of 1 μg/mL in 1×PBS) and stored overnight at 4° C. The next day the plate is washed three times with PBST (PBS+0.05% Tween20) and once with PBS followed by the addition of 100 μL of blocking buffer (1% BSA−5% Sucrose) and plates are sealed and incubated for at least 4 h at RT. After washing the plate once with PBST and once with PBS, 40 μL of standard or sample are added (IL-10 standard curve is prepared using a 1/2 serial dilution starting from […]; dilutions are made in dilution buffer (PBS+1% BSA)). Plates are washed twice with PBST, and once with PBS, after which 35 μL of the detection antibody is added (final concentration 0.143 μg/mL diluted in dilution buffer) and plates are incubated for at least 2 h at RT. […]

SIK3 = biological target: T3, SIK3 (Homo sapiens, UniProt Q9Y2K2); experiment: ADP-Glo kinase assay, SIK3; type: biochemical; conditions: ADP-Glo SIK kinase assay
T3 construct: purchased SignalChem S12-11G-100
T3 sequence (Q9Y2K2 whole entry): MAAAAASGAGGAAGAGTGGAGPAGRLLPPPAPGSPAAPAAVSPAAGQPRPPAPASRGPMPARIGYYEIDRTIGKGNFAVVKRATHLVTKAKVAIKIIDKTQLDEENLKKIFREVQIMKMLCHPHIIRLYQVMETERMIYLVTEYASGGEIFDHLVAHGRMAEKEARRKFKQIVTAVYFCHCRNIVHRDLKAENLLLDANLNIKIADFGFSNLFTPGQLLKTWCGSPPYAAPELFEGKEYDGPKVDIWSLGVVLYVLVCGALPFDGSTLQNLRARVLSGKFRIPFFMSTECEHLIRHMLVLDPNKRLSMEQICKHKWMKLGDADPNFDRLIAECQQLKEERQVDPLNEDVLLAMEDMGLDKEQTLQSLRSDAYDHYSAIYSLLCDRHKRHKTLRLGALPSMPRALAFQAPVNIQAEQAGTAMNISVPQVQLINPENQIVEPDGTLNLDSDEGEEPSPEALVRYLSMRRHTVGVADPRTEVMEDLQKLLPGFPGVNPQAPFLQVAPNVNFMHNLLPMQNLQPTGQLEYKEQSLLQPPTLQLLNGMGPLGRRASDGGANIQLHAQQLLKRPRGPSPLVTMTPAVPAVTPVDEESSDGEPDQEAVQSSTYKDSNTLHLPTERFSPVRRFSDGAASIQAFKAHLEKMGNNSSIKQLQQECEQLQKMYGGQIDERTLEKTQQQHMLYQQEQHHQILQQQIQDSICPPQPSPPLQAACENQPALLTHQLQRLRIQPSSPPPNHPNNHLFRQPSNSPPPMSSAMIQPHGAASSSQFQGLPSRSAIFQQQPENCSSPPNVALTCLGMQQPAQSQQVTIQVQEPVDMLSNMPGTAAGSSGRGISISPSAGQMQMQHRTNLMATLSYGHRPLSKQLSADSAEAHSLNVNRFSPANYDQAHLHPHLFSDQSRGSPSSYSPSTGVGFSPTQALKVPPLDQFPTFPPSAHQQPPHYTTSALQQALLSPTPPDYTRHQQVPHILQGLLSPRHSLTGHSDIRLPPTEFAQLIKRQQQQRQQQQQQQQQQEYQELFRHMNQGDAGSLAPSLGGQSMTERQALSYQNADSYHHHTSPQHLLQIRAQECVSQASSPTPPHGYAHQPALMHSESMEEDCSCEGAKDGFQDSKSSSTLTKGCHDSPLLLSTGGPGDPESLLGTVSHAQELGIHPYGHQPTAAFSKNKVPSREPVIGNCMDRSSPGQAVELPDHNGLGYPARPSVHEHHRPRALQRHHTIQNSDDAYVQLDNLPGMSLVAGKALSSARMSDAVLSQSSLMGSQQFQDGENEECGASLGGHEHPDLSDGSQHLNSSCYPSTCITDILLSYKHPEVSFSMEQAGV
Outline: as §9

Structure (SMILES) | EC50 ([1]; 4 h) [nM] | IC50 (SIK1) [nM] | IC50 (SIK2) [nM] | IL-10 FCmax median [2] | IC50 (SIK3) [nM] | EC50 [1] [nM]
COc1cc(-c2cnc3cc(OCCCN4CCCCC4)ccn23)cc(OC(F)F)c1C(=O)N1CC(O)(C(F)F)C1 [compound 358, [2-(difluoromethoxy)-6-methoxy-4-[7-[3-(1-piperidyl)propoxy]imidazo[1,2-a]pyridin-3-yl]phenyl]-[3-(difluoromethyl)-3-hydroxy-azetidin-1-yl]methanone] | 100 to 1000 | 10 to 100 | 0.01 to 10 | +++ (>4.5) | 0.01 to 10 | –
COc1cc(-c2cnc3cc(OCC4CN(CC#N)C4)ccn23)cc(OC(F)F)c1C(=O)NC1CC1 [Cpd 322, 4-[7-[[1-(cyanomethyl)azetidin-3-yl]methoxy]imidazo[1,2-a]pyridin-3-yl]-N-cyclopropyl-2-(difluoromethoxy)-6-methoxy-benzamide] | – | 10 to 100 | 0.01 to 10 | ++ (>1.5-4.5) | 0.01 to 10 | 0.1 to 100
COc1cc(-c2cnc3cc(OCC4CCCN(C(C)C)C4)ccn23)cc(OC(F)F)c1C(=O)NC1CC1 (stereo not drawn) [compound 280, N-cyclopropyl-2-(difluoromethoxy)-4-[7-[(1-isopropyl-3-piperidyl)methoxy]imidazo [1,2-a]pyridin-3-yl]-6-methoxy-benzamide] | 0.1 to 100 | 0.01 to 10 | 0.01 to 10 | ++ (>1.5-4.5) | 0.01 to 10 | –
CCOC(=O)C1(C)CCN(CCCOc2ccn3c(-c4cc(OC)c(C(=O)NC5CC5)c(OC(F)F)c4)cnc3c2)CC1 [compound 380, ethyl 1-[3-[3-[4-(cyclopropylcarbamoyl)-3-(difluoromethoxy)-5-methoxy-phenyl]imidazo[1,2-a]pyridin-7-yl]oxypropyl]-4-methyl-piperidine-4-carboxylate] | 0.1 to 100 | 10 to 100 | 0.01 to 10 | ++ (>1.5-4.5) | 0.01 to 10 | –
COc1cc(-c2cnc3cc(OC[C@@H]4CCCN(C(C)C)C4)ccn23)cc(OC(F)F)c1C(=O)NC1CC1 [compound 338, N-cyclopropyl-2-(difluoromethoxy)-4-[7-[[(3R)-1-isopropyl-3-piperidyl]methoxy]imidazo [1,2-a]pyridin-3-yl]-6-methoxy-benzamide] | 0.1 to 100 | 10 to 100 | 0.01 to 10 | ++ (>1.5-4.5) | 0.01 to 10 | –
COc1cc(-c2cnc3cc(OCCCN4CC(O)(C(F)(F)F)C4)ccn23)cc(OC(F)F)c1C(=O)NC1CC1 [compound 348, N-cyclopropyl-2-(difluoromethoxy)-4-[7-[3-[3-hydroxy-3-(trifluoromethyl)azetidin-1-yl]propoxy]imidazo[1,2-a]pyridin-3-yl]-6-methoxy-benzamide] | 0.1 to 100 | 10 to 100 | 0.01 to 10 | ++ (>1.5-4.5) | 0.01 to 10 | –
COc1cc(-c2cnc3cc(OCCCN4C5CCC4COC5)ccn23)cc(OC(F)F)c1C(=O)NC1CC1 [compound 292, N-cyclopropyl-2-(difluoromethoxy)-6-methoxy-4-[7-[3-(3-oxa-8-azabicyclo[3.2.1]octan-8-yl)propoxy]imidazo[1,2-a]pyridin-3-yl]benzamide] | – | 10 to 100 | 0.01 to 10 | +++ (>4.5) | 0.01 to 10 | 0.1 to 100
COc1cc(-c2cnc3cc(OCCCN4CCC5(COC5)C4)ccn23)cc(OC(F)F)c1C(=O)NC1CC1 [compound 285, N-cyclopropyl-2-(difluoromethoxy)-6-methoxy-4-[7-[3-(2-oxa-7-azaspiro[3.4]octan-7-yl)propoxy]imidazo[1,2-a]pyridin-3-yl]benzamide] | 100 to 1000 | 10 to 100 | 0.01 to 10 | +++ (>4.5) | 0.01 to 10 | –
COc1cc(-c2cnc3cc(OCCCN4CCC(O)CC4)ccn23)cc(OC(F)F)c1C(=O)NC1CC1 [compound 277, N-cyclopropyl-2-(difluoromethoxy)-4-[7-[3-(4-hydroxy-1-piperidyl)propoxy]imidazo [1,2-a]pyridin-3-yl]-6-methoxy-benzamide] | 0.1 to 100 | 10 to 100 | 0.01 to 10 | +++ (>4.5) | 0.01 to 10 | –
COc1cc(-c2cnc3cc(OC[C@@H]4CCN(C(C)C)C4)ccn23)cc(OC(F)F)c1C(=O)NC1CC1 [compound 337, N-cyclopropyl-2-(difluoromethoxy)-4-[7-[[(3R)-1-isopropylpyrrolidin-3-yl]methoxy]imidazo[1,2-a]pyridin-3-yl]-6-methoxy-benzamide] | 0.1 to 100 | 10 to 100 | 0.01 to 10 | +++ (>4.5) | 0.01 to 10 | –
COc1cc(-c2cnc3cc(OCC4COCCN4C(C)C)ccn23)cc(OC(F)F)c1C(=O)NC1CC1 (stereo not drawn) [compound 283, N-cyclopropyl-2-(difluoromethoxy)-4-[7-[(4-isopropylmorpholin-3-yl)methoxy]imidazo[1,2-a]pyridin-3-yl]-6-methoxy-benzamide] | 100 to 1000 | 10 to 100 | 10 to 100 | +++ (>4.5) | 0.01 to 10 | –
COc1cc(-c2cnc3cc(OCCCN4CC(O)C(F)(F)C4)ccn23)cc(OC(F)F)c1C(=O)NC1CC1 (stereo not drawn) [compound 345, N-cyclopropyl-4-[7-[3-(3,3-difluoro-4-hydroxy-pyrrolidin-1-yl)propoxy]imidazo[1,2-a]pyridin-3-yl]-2-(difluoromethoxy)-6-methoxy-benzamide] | 0.1 to 100 | 10 to 100 | 0.01 to 10 | +++ (>4.5) | 0.01 to 10 | –
